Non-standard residues stand in square brackets, D forms with d. No end group written: not given here.
Tests used:
[1] = Body weight-reducing effect of intranasal TCTP-PTD 13-[D-Leu-4]-OB3; type: in vivo, mouse; conditions: for body weight after 10 days compared with PBS or OB3 / rate of increase in body weight for 10 days compared with PBS or OB3: ICR mice, intranasal 2 mg/kg once each day for 10 days
Text: A peptide (SEQ ID NO: 124) comprising [D-Leu-4]-OB3 linked to L-PTD 13 or D-PTD 13 by a GG linker was designed. Furthermore, peptides (SEQ ID NO: 125, SEQ ID NO: 126 and SEQ ID NO: 127, respectively) comprising [D-Leu-4]-OB3 linked to each of D-TCTP-PTD 13M1, D-TCTP-PTD 13M2 or D-TCTP-PTD 13M3 by a GG linker were designed. The peptides were synthesized with a purity of 90% or higher by Peptron Inc.
4-week-old male ICR mice were used as experimental animals and divided into the following groups, each consisting of 7 animals: PBS, [D-Leu-4]-OB3, L-PTD 134D-Leu-41-OB3, and D-PTD 134D-Leu-41-OB3 groups. Each of [D-Leu-4]-OB3, L-PTD 134D-Leu-41-OB3 and D-PTD 13-[D-Leu-4]-OB3 was administered intranasally to each mouse at a dose of 2 mg/kg once each day for 10 days at a uniform time point, while a change in the body weight of each of the experimental animals was measured.

[2] = Appetite-inhibiting effect (food intake) of intranasal TCTP-PTD 13-[D-Leu-4]-OB3; type: in vivo, mouse; conditions: ICR mice, intranasal 2 mg/kg; for cumulative food intake compared with PBS: measured every day for 10 days
Procedure: In order to examine whether or not the body weight-reducing effect confirmed in Example 7-2 has a connection with a decrease in food intake, PBS, [D-Leu-4]-OB3, L-PTD 13-[D-Leu-4]-OB3 or D-PTD 13-[D-Leu-4]-OB3 was administered intranasally at a dose of 2 mg/kg, and the food intake was measured everyday for 10 days.

[3] = system: human bronchial epithelial cell line BEAS-2B; assay: Cell membrane penetration of FITC-labeled L-/D-form TCTP-PTD 13 by flow cytometry; type: cell-based; conditions: BEAS-2B cells, 2.5 μM FITC-labeled peptide, 30 minutes
Procedure: The human bronchial epithelial cell line BEAS-2B was prepared, and the cell membrane penetration ability of the TCTP-PTD peptide according to the amino acid type was analyzed by flow cytometry. Specifically, BEAS-2B cells were seeded on a 6-well plate at a density of 8×10^5 cells/well, and then cultured in cell culture medium (BEGM) for 24 hours. After 24 hours of cell culture, each well was washed twice with PBS, and then each well was treated with FITC-labeled L-form TCTP-PTD 13 (hereinafter referred to as L-PTD 13; SEQ ID NO: 27) or FITC-labeled D-form TCTP-PTD 13 (hereinafter referred to as D-PTD 13; SEQ ID NO: 27) diluted in cell culture medium such that the concentration of each TCTP-PTD would be 2.5 μM. 30 minutes after the cells were treated with the two kinds of TCTP-PTD 13, the cells were isolated from each well by use of 0.25% trypsin, and then washed 6 times with cold PBS to remove TCTP-PTD from the cell surface.

[4] = system: hair follicle and dermis of the skin (male BALB/c mice); assay: Hair follicle penetration of FITC-labeled TCTP-PTD after transdermal administration (fluorescence microscopy); type: in vivo, mouse; conditions: 100 μl of 100 μM FITC-labeled peptide on 1 cm^2, 2 hours
Procedure: Male BALB/c mice (7-8-week-old) were prepared, and the abdominal region of the mice was shaved. Next, the mice were anesthetized by intraperitoneal injection of urethane (1.2-1.5 g/kg), and then 100 μl of each TCTP-PTD peptide solution was applied to the abdominal region of each mouse so as to be administered transdermally. Each of the peptide solutions was applied to an area of 1 cm^2.
2 hours after transdermal administration, the skin tissue was collected, fixed with 10% formalin for about 24 hours, and then treated with 30% sucrose solution for 4 hours. The pretreated skin tissue was immersed in OCT-compound, and then treated with liquid nitrogen to prepare a frozen block. The skin tissue was sectioned to a thickness of 20 μm by use of a cryotome and attached to a slide. The slide having the skin tissue attached thereto was washed five times with PBS, and then the nucleus was stained with DAPI (blue fluorescence).
The amino terminus of L-PTD 13 or D-PTD 13 was labeled with FITC (green fluorescence), and then each PTD peptide was dissolved in PBS (phosphate buffered saline, pH 7.4) to a final concentration of 100 μM.
Male BALB/c mice (7-8-week-old) were prepared, and the abdominal region of the mice was shaved. Next, the mice were anesthetized by intraperitoneal injection of urethane (1.2-1.5 g/kg), and then 100 μl of each of the FITC-labeled L-PTD 13 or D-PTD 13 solution was applied to the abdominal region of each mouse so as to be administered transdermally. Each of the peptide solutions was applied to an area of 1 cm^2.

[5] = system: cervical cancer cell line HeLa; assay: Cell membrane penetration of FITC-labeled TCTP-PTD peptides in HeLa cells (fluorescence reader); type: cell-based; conditions: 10 μM FITC-labeled peptide, 15 minutes
Procedure: The cervical cancer cell line HeLa was prepared. To detect TCTP-PTD accumulated in cells after passage through the cell membrane, the N-terminus of the synthesized peptide was labeled with FITC (fluorescein isothicyanate). Then, the cervical cancer cell line Hela was treated with 10 μM of the FITC-labeled TCTP-PTD of SEQ ID NO: 18, SEQ ID NO: 22, SEQ ID NO: 24 or SEQ ID NO: 27 for 15 minutes. After completion of the incubation, the cells were washed three times with PBS to remove FITC-TCTP-PTD remaining on the cell membrane of the HeLa cells. 500 μl of PBS was added, and then the fluorescence intensity of the FITC was measured with a fluorescence reader at 495 nm and 517 nm.

[6] = system: type 2 diabetic model mice (db/db mice); assay: Blood glucose-lowering effect of intranasal TCTP-PTD/Ex-4 mixture in type 2 diabetic model mice after i.p. glucose; type: in vivo, mouse; conditions: Ex-4 10 μg/kg, 10 μM Ex-4 + 20 μM peptide, glucose 2.5 g/kg i.p., monitored 240 minutes
Procedure: Male db/db mice weighing 31-34 g were used as experimental animals. The mice were fasted overnight, and then the blood glucose level in the mice were measured using a blood glucose meter.
20 minutes after anesthesia, each of the prepared Ex-4/TCTP-PTD mixtures was administered intranasally to the mice (Ex-4 dose: 10 μg/kg), and a control group was administered intranasally with the same amount of Ex-4, and a negative control group was administered intranasally with the same amount of PBS. After 15 minutes, glucose (2.5 g/kg) was injected intraperitoneally to the mice, and the blood glucose level in the mice was monitored for 240 minutes.

[7] = system: type 1 diabetic model mice (STZ-induced male ICR mice); assay: Blood glucose-lowering effect of intranasal TCTP-PTD/insulin mixture in type 1 diabetic model mice; type: in vivo, mouse; conditions: insulin 2 IU/kg, insulin:peptide 1:2, monitored 240 minutes
Procedure: Streptozotocin (STZ) was injected intraperitoneally into male ICR mice (body weight: 33-34.5 g) four times (doses: 100, 50, 50 and 50 mg/kg) at 2-day intervals to induce type 1 diabetes. At 7 days after last administration of STZ, mice having a blood glucose level of 300-350 mg/dL were selected as experimental animals.

[8] = Plasma insulin concentration after intranasal administration of insulin/TCTP-PTD mixtures (ELISA); conditions: rats, insulin 0.5 IU/kg, 50 μM insulin + 100 μM peptide, peptides compared with SEQ ID NO: 27
Text: Male Wistar rats weighing 180-190 g were used as experimental animals and anesthetized in the same manner as described above.

[9] = system: normal male white Wistar rats; assay: Pharmacodynamic profile of nasal insulin formulations in normal white rats (blood glucose); type: in vivo, rat; conditions: subcutaneous
Procedure: After design of the nasal insulin formulations, evaluation of the pharmacodynamic profile of each nasal insulin formulation was performed in normal white rats. Specifically, male white Wistar rats weighing 165-200 g were used as experimental animals. For accuracy of evaluation, the […] were fasted overnight, and then white rats having a blood glucose level of 90-120 mg/dL in the fasted state were used in the experiment. To calculate PA (pharmacological availability), the initial blood glucose level was taken as 100%. To administer the nasal insulation formulations, the mice were anesthetized by intraperitoneal administration of the anesthetic sodium pentobarbital (dose: 65 mg/kg).

[10] = system: type 1 diabetic white rats (alloxan-induced); assay: Pharmacodynamic profile of nasal insulin formulations in type 1 diabetic (alloxan) rats; type: in vivo, rat; conditions: type 1 diabetic rats
Procedure: Alloxan was injected intraperitoneally to experimental white rats to induce type 1 diabetes. One week after alloxan administration, white rats having a blood glucose level of 230-300 mg/dL were used as experimental animals.

[11] = Pharmacokinetic profile of nasal insulin formulations (plasma insulin); conditions: rats

Substance: D-PTD 13-[D-Leu-4]-OB3: peptide (SEQ ID NO: 124) comprising [D-Leu-4]-OB3 linked to D-PTD 13 by a GG linker ([dM][dI][dI][dF][dR][dA][dL][dI][dS][dH][dK][dK]GGSCS[dL]PQT)
- body weight after 10 days compared with PBS or OB3 [1]: decreased
- rate of increase in body weight for 10 days compared with PBS or OB3 [1]: lower
- total food intake after 10 days of administration [2]: decreased
- cumulative food intake compared with PBS [2]: decreased continuously

Substance: D-PTD 13: D-form TCTP-PTD 13; SEQ ID NO: 27 ([dM][dI][dI][dF][dR][dA][dL][dI][dS][dH][dK][dK])
- ability to penetrate the cell membrane (flow cytometry) [3]: excellent ability to penetrate the cell membrane
- penetration to hair follicle and dermis of the skin [4]: reached the hair follicle and dermis of the skin
- body weight-reducing and appetite-inhibiting effects, D-form vs L-form ([1]; peptide linked to [D-Leu-4]-OB3, intranasal 2 mg/kg, 10 days, results of Examples 7-2 and 7-3 together): better effects than L-PTD 13

Substance: L-PTD 13-[D-Leu-4]-OB3: peptide (SEQ ID NO: 124) comprising [D-Leu-4]-OB3 linked to L-PTD 13 by a GG linker (MIIFRALISHKKGGSCS[dL]PQT)
- body weight after 10 days compared with PBS or OB3 [1]: decreased
- rate of increase in body weight for 10 days compared with PBS or OB3 [1]: lower
- total food intake after 10 days of administration [2]: decreased
- cumulative food intake compared with PBS [2]: decreased continuously

Substance: L-PTD 13: L-form TCTP-PTD 13; SEQ ID NO: 27 (MIIFRALISHKK; PTD #27)
- ability to penetrate the cell membrane (flow cytometry) [3]: excellent ability to penetrate the cell membrane
- penetration to hair follicle and dermis of the skin [4]: reached the hair follicle and dermis of the skin

Substance: SEQ ID NO: 1: variant TCTP-PTD peptide (LIIFRALISHKK; PTD #1)
- penetration to hair follicle and dermis of the skin [4]: reached the hair follicle and dermis of the skin

Substance: SEQ ID NO: 12: variant TCTP-PTD peptide (MIIFRLAAYHKK; PTD #12)
- penetration to hair follicle and dermis of the skin [4]: reached the hair follicle and dermis of the skin

Substance: SEQ ID NO: 17: variant TCTP-PTD peptide (MIIFRIAAYPKK; PTD #17)
- penetration to hair follicle and dermis of the skin [4]: reached the hair follicle and dermis of the skin

Substance: SEQ ID NO: 27: TCTP-PTD peptide of Korean Patent No. 10-0859972, basis of the variants (MIIFRALISHKK; PTD #27)
- fluorescence of FITC-labeled peptide in cells (cell membrane penetration) [5]: high level of fluorescence
- blood glucose level after i.p. glucose / blood glucose-lowering effect [6]: increase the blood glucose-lowering effect of Ex-4

Substance: insulin
- change in blood glucose level [7]: no significant change in the blood glucose level
- blood insulin concentration / insulin uptake [8]: little or no change in the blood insulin concentration
- AAC 0-180 min (area above the blood glucose level-time curve) ([9]; insulin 0.5 IU/kg): 2560
- PA % (pharmacological availability) ([9]; insulin 0.5 IU/kg (reference)): 100%
- AAC 0-240 min (area above the blood glucose level-time curve) ([10]; nasal, insulin 2 IU/kg): 2156.65 ± 1070.68
- AAC 0-240 min (area above the blood glucose level-time curve) ([10]; subcutaneous, insulin 1 IU/kg): 26897.33 ± 772.31
- PA % ([10]; subcutaneous, insulin 1 IU/kg (reference)): 100%
- BA % (relative bioavailability vs s.c. insulin) ([11]; nasal, insulin 5 IU/kg, listed as Free insulin): 3.34 ± 0.38%
- BA % ([11]; subcutaneous, insulin 0.25 IU/kg (reference)): 100%
